Laboratory results taken from PubChem BioAssay AID330 (DTP/NCI, 2004).
Values joined by “and” are separate entries in the source; they are usually repeats but may differ in a detail not shown here. Equal entries are not always repeated. Inconclusive results and toxic doses are left out.

System: P388 leukemia ip, CD2F1 mice, survival T/C
Assay: NCI In Vivo Anticancer Drug Screen. Data for tumor model P388 Leukemia (intraperitoneal) in CD2F1 (CDF1) mice
Conditions: endpoint: median survival time, higher = longer survival
Method in brief: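 Mice carrying the transplanted tumor received test compound or vehicle. Survival was recorded in each group, and the value is the treated-group measurement divided by that of the vehicle-treated control group.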

[1] = dose: 200.0 mg/kg/injection, schedule: Q04DX003 (ip), vehicle: Klucel (hydroxypropylcellulose) (HPC)
[2] = dose: 100.0 mg/kg/injection, schedule: Q01DX009 (ip), vehicle: Klucel (hydroxypropylcellulose) (HPC)
[3] = dose: 200.0 mg/kg/injection, schedule: Q01DX009 (ip), vehicle: Klucel (hydroxypropylcellulose) (HPC)
[4] = dose: 400.0 mg/kg/injection, schedule: Q01DX009 (ip), vehicle: Klucel (hydroxypropylcellulose) (HPC)
[5] = dose: 60.0 mg/kg/injection, schedule: Q01DX005 (ip), vehicle: saline with Tween-80
[6] = dose: 120.0 mg/kg/injection, schedule: Q01DX005 (ip), vehicle: saline with Tween-80
[7] = dose: 240.0 mg/kg/injection, schedule: Q01DX005 (ip), vehicle: saline with Tween-80
[8] = dose: 25.0 mg/kg/injection, schedule: Q01DX009 (ip), vehicle: saline with Tween-80
[9] = dose: 50.0 mg/kg/injection, schedule: Q01DX009 (ip), vehicle: saline with Tween-80
[10] = dose: 50.0 mg/kg/injection, schedule: Q01DX005 (ip), vehicle: saline with Tween-80
[11] = dose: 100.0 mg/kg/injection, schedule: Q01DX005 (ip), vehicle: saline with Tween-80
[12] = dose: 200.0 mg/kg/injection, schedule: Q01DX005 (ip), vehicle: saline with Tween-80
[13] = dose: 50.0 mg/kg/injection, schedule: Q01DX009 (ip), vehicle: Klucel (hydroxypropylcellulose) (HPC)
[14] = dose: 100.0 mg/kg/injection, schedule: Q01DX009 (ip), vehicle: saline with Tween-80
[15] = dose: 12.5 mg/kg/injection, schedule: Q01DX005 (ip), vehicle: Klucel (hydroxypropylcellulose) (HPC)
[16] = dose: 25.0 mg/kg/injection, schedule: Q01DX005 (ip), vehicle: Klucel (hydroxypropylcellulose) (HPC)

## CC1C2Cc3ccc(O)cc3C1(C)CCN2Cc1ccoc1 (stereo unspecified)
dose: 50.0 mg/kg/injection, schedule: Q01DX009 (ip), vehicle: saline
  T/C: 96 % of control
dose: 100.0 mg/kg/injection, schedule: Q01DX009 (ip), vehicle: saline
  T/C: 99 % of control

## O=C(O)c1cccc(C(=O)O)c1Sc1c(C(=O)O)cccc1C(=O)O
dose: 100.0 mg/kg/injection, schedule: Q01DX001 (ip), vehicle: saline with Tween-80
  T/C: 99 % of control
dose: 200.0 mg/kg/injection, schedule: Q01DX001 (ip), vehicle: saline with Tween-80
  T/C: 95 % of control
dose: 400.0 mg/kg/injection, schedule: Q01DX001 (ip), vehicle: saline with Tween-80
  T/C: 91 % of control

## O=C(S)CC(O)(c1ccccc1)c1ccccc1
dose: 100.0 mg/kg/injection, schedule: Q04DX003 (ip), vehicle: Klucel (hydroxypropylcellulose) (HPC)
  T/C: 105 % of control
[1]
  T/C: 105 % of control
dose: 400.0 mg/kg/injection, schedule: Q04DX003 (ip), vehicle: Klucel (hydroxypropylcellulose) (HPC)
  T/C: 101 % of control

## COc1cc2c(cc1C(C)c1ccc(OCC(=O)O)cc1)OCO2 (stereo unspecified)
dose: 50.0 mg/kg/injection, schedule: Q01DX005 (ip), vehicle: distilled water + Tween-80
  T/C: 96 % of control
dose: 100.0 mg/kg/injection, schedule: Q01DX005 (ip), vehicle: distilled water + Tween-80
  T/C: 105 % of control
dose: 200.0 mg/kg/injection, schedule: Q01DX005 (ip), vehicle: distilled water + Tween-80
  T/C: 100 % of control

## O=C(Nc1ccc(Br)cc1)c1ccc(Cl)c(Cl)c1
[2]
  T/C: 116 % of control
[3]
  T/C: 119 % of control
[4]
  T/C: 117 % of control

## CC(=O)Nc1ccc(Nc2cc(S(=O)(=O)O)c(N)c3c2C(=O)c2ccccc2C3=O)cc1
dose: 60.0 mg/kg/injection, schedule: Q01DX005 (ip), vehicle: saline
  T/C: 92 % of control
dose: 120.0 mg/kg/injection, schedule: Q01DX005 (ip), vehicle: saline
  T/C: 95 % of control
dose: 240.0 mg/kg/injection, schedule: Q01DX005 (ip), vehicle: saline
  T/C: 92 % of control

## CC[n+]1ccc(Nc2ccc(/C=C/c3ccc4cc(Nc5cc[n+](CC)cc5)ccc4[n+]3CC)cc2)cc1
dose: 3.3 mg/kg/injection, schedule: Q04DX003 (ip), vehicle: saline sonified
  T/C: 113 % of control

## ClC(Cl)(Cl)c1cccc(C(Cl)(Cl)Cl)c1
dose: 132.0 mg/kg/injection, schedule: Q04DX003 (ip), vehicle: Klucel (hydroxypropylcellulose) (HPC)
  T/C: 113 % of control
[1]
  T/C: 100 % of control
dose: 264.0 mg/kg/injection, schedule: Q04DX003 (ip), vehicle: saline with Tween-80
  T/C: 95 % of control
dose: 300.0 mg/kg/injection, schedule: Q04DX003 (ip), vehicle: Klucel (hydroxypropylcellulose) (HPC)
  T/C: 113 % of control
dose: 400.0 mg/kg/injection, schedule: Q04DX003 (ip), vehicle: saline with Tween-80
  T/C: 91 % of control
dose: 600.0 mg/kg/injection, schedule: Q04DX003 (ip), vehicle: saline with Tween-80
  T/C: 108 % of control

## NNC(=O)c1ccccc1CO
[5]
  T/C: 96 % of control
[6]
  T/C: 102 % of control
[7]
  T/C: 113 % of control

## [O-]c1n[n+](-c2ccccc2)no1
dose: 3.13 mg/kg/injection, schedule: Q01DX009 (ip), vehicle: other
  T/C: 97 % of control
dose: 6.25 mg/kg/injection, schedule: Q01DX009 (ip), vehicle: other
  T/C: 96 % of control
dose: 12.5 mg/kg/injection, schedule: Q01DX009 (ip), vehicle: other
  T/C: 109 % of control
dose: 25.0 mg/kg/injection, schedule: Q01DX009 (ip), vehicle: other
  T/C: 101 % of control

## CCOC(=O)/C=C(\C)SC1=CC(=O)c2ccccc2C1=O
dose: 3.13 mg/kg/injection, schedule: Q01DX009 (ip), vehicle: saline with Tween-80
  T/C: 86 % of control
dose: 6.25 mg/kg/injection, schedule: Q01DX009 (ip), vehicle: saline with Tween-80
  T/C: 94 % of control
dose: 12.5 mg/kg/injection, schedule: Q01DX009 (ip), vehicle: saline with Tween-80
  T/C: 99 % of control and 122 % of control
[8]
  T/C: 100 % of control and 111 % of control
[9]
  T/C: 100 % of control and 107 % of control

## Cc1ccc(/C2=C(\c3ccc(C)cc3)N(c3ccc(C)cc3)CCCCN2c2ccc(C)cc2)cc1
dose: 100.0 mg/kg/injection, schedule: Q01DX001 (ip), vehicle: Klucel (hydroxypropylcellulose) (HPC)
  T/C: 92 % of control
dose: 200.0 mg/kg/injection, schedule: Q01DX001 (ip), vehicle: Klucel (hydroxypropylcellulose) (HPC)
  T/C: 87 % of control
dose: 400.0 mg/kg/injection, schedule: Q01DX001 (ip), vehicle: Klucel (hydroxypropylcellulose) (HPC)
  T/C: 92 % of control

## Brc1ccc(Nc2nnc3nc(-c4ccccc4)c(-c4ccccc4)nn23)cc1
[10]
  T/C: 89 % of control
[11]
  T/C: 89 % of control
[12]
  T/C: 97 % of control

## COc1ccc(-c2coc3cc(O)cc(O)c3c2=O)cc1
[8]
  T/C: 94 % of control
[13]
  T/C: 110 % of control
[9]
  T/C: 97 % of control
[2]
  T/C: 107 % of control
[14]
  T/C: 93 % of control
[3]
  T/C: 104 % of control
[4]
  T/C: 96 % of control

## CCCCCCCCCCCCCCCCS(=O)(=O)N/N=C(\c1ccc(C(C)C)cc1)N1CCOCC1
[13]
  T/C: 90 % of control
[2]
  T/C: 89 % of control
[3]
  T/C: 90 % of control

## O=P(c1ccccc1)(c1ccccc1)c1ccccc1.[CH3][Sn]([Cl])([Cl])[c]1ccccc1
dose: 12.5 mg/kg/injection, schedule: Q04DX003 (ip), vehicle: saline
  T/C: 100 % of control and 118 % of control
dose: 25.0 mg/kg/injection, schedule: Q04DX003 (ip), vehicle: saline
  T/C: 100 % of control and 104 % of control
dose: 50.0 mg/kg/injection, schedule: Q04DX003 (ip), vehicle: saline
  T/C: 100 % of control and 101 % of control
dose: 100.0 mg/kg/injection, schedule: Q04DX003 (ip), vehicle: saline
  T/C: 100 % of control and 110 % of control

## [F][Sn]([F])([c]1ccccc1)[c]1ccccc1
dose: 1.56 mg/kg/injection, schedule: Q01DX009 (ip), vehicle: Klucel (hydroxypropylcellulose) (HPC)
  T/C: 196 % of control

## OCCCCCCCCCCCN1CCOCC1
[10]
  T/C: 106 % of control
[11]
  T/C: 98 % of control
[12]
  T/C: 101 % of control

## CCCCN(CCCC)c1ccc(C(=N)c2ccc(N(CCCC)CCCC)cc2)cc1
dose: 6.25 mg/kg/injection, schedule: Q01DX005 (ip), vehicle: Klucel (hydroxypropylcellulose) (HPC)
  T/C: 108 % of control
[15]
  T/C: 108 % of control
[16]
  T/C: 117 % of control

## OCC1OC(n2ccc3c(Cl)ncnc32)C(O)C1O (stereo unspecified)
dose: 6.25 mg/kg/injection, schedule: Q01DX005 (ip), vehicle: suspension in saline
  T/C: 110 % of control
dose: 12.5 mg/kg/injection, schedule: Q01DX005 (ip), vehicle: suspension in saline
  T/C: 117 % of control
dose: 25.0 mg/kg/injection, schedule: Q01DX005 (ip), vehicle: suspension in saline
  T/C: 96 % of control

## O=C1c2ccccc2C(=O)N1CC#CC[N+]1([O-])CCc2ccccc2C1 (stereo unspecified)
[15]
  T/C: 103 % of control
[16]
  T/C: 102 % of control
dose: 50.0 mg/kg/injection, schedule: Q01DX005 (ip), vehicle: Klucel (hydroxypropylcellulose) (HPC)
  T/C: 103 % of control
dose: 100.0 mg/kg/injection, schedule: Q01DX005 (ip), vehicle: Klucel (hydroxypropylcellulose) (HPC)
  T/C: 110 % of control

## COc1ccc(/C=C2/C(=O)ON=C2C)cc1
[5]
  T/C: 108 % of control
[6]
  T/C: 110 % of control
[7]
  T/C: 109 % of control

## Ic1ccc(N=Cc2cccs2)cc1
[9]
  T/C: 106 % of control
[14]
  T/C: 108 % of control
dose: 200.0 mg/kg/injection, schedule: Q01DX009 (ip), vehicle: saline with Tween-80
  T/C: 123 % of control
dose: 400.0 mg/kg/injection, schedule: Q01DX009 (ip), vehicle: saline with Tween-80
  T/C: 115 % of control

## O=C1OC(c2ccccc2)c2cccnc21 (stereo unspecified)
dose: 100.0 mg/kg/injection, schedule: Q04DX002 (ip), vehicle: saline with Tween-80
  T/C: 101 % of control
dose: 200.0 mg/kg/injection, schedule: Q04DX002 (ip), vehicle: saline with Tween-80
  T/C: 92 % of control
dose: 400.0 mg/kg/injection, schedule: Q04DX002 (ip), vehicle: saline with Tween-80
  T/C: 98 % of control

## N#Cn1c2ccccc2c(=N)c2ccccc21
[5]
  T/C: 103 % of control
[6]
  T/C: 102 % of control

## O=S(=O)(OCCCl)c1c(Cl)c(Cl)c(Cl)c(Cl)c1Cl
dose: 12.5 mg/kg/injection, schedule: Q01DX005 (ip), vehicle: saline with Tween-80
  T/C: 95 % of control
dose: 25.0 mg/kg/injection, schedule: Q01DX005 (ip), vehicle: saline with Tween-80
  T/C: 92 % of control
[10]
  T/C: 92 % of control and 93 % of control
[11]
  T/C: 96 % of control
